Among the data in patent US8158621B2, “Methods of treating or preventing autoimmune diseases with 2,4-pyrimidinediamine compounds” (Rigel Pharmaceuticals, Inc., priority 2002, dated 2012) are IC50 values, retold here.

Bounds are passed on as bounds.

The subject of the first test is cultured human mast cells (CHMC). The test can be described thus: CHMC low cell density IgE activation: tryptase assay. In kind it is cell-based. The conditions noted are these: low cell density; read-out: CHMC anti-IgE Tryptase. The gist of the method:
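Low-density CHMC assay: donor-adjusted 1000-1500 cells/well, MT buffer, 1 hr 37° C preincubation; anti-IgE stimulus 30 min 37° C versus MT-only controls; supernatant tryptase by substrate, 30 min RT.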
Consider `Fc1cnc(Nc2ccc(OCc3ccccc3)c(Cl)c2)nc1Nc1ccc(OCc2ccccc2)c(Cl)c1` [Compound R926965], for which the IC50 was over 10 µM.
As to `CC1(C)Oc2ccc(Nc3nc(Nc4ccc5cc[nH]c5c4)ncc3F)cc2NC1=O` [Compound R926982], the IC50 came to 0.12 µM.

The next test shares this test system. The test can be described thus: CHMC low cell density ionomycin activation: tryptase assay. The conditions noted are these: low cell density; read-out: CHMC Ionomycin Tryptase. In kind it is cell-based.
On to `CC(=O)N(C)c1ccc(Nc2ncc(F)c(NC3CC3)n2)cc1` [Compound R945369], for which the IC50 was over 10 µM.
Still for that read-out and setting: the figure for `Fc1cnc(Nc2ccc(OCc3ccccc3)c(Cl)c2)nc1Nc1ccc(OCc2ccccc2)c(Cl)c1` [Compound R926965] is over 10 µM.
Still for that read-out and setting: the figure for `CNCCNC(=O)c1cc(Nc2nc(Nc3cccc(OCC(=O)NC)c3)ncc2F)ccc1OC(F)(F)F` [Compound R950408] is over 10 µM; for `CC1(C)Oc2ccc(Nc3nc(Nc4ccc5cc[nH]c5c4)ncc3F)cc2NC1=O` [Compound R926982] it is over 10 µM.
Turning to `CNC(=O)COc1cccc(Nc2ncc(F)c(Nc3ccc(OC(F)(F)F)c(C(=O)N4CCCCC4)c3)n2)c1` [Compound R950409], the IC50 is over 10 µM.
Regarding `CCOC(=O)CCn1ncc2cc(Nc3ncc(F)c(Nc4ccc(F)c(F)c4)n3)ccc21` [Compound R935384], the IC50 was over 10 µM.
The same measure, in the same setting: the figure for `CNC(=O)COc1cccc(Nc2ncc(F)c(Nc3ccc(OC(F)(F)F)c(C(=O)NC[C@@H](O)CO)c3)n2)c1` [Compound R950410] is over 10 µM.
Consider `CNC(=O)CCn1ncc2cc(Nc3ncc(F)c(Nc4ccc(Cl)cc4)n3)ccc21` [Compound R935382], for which the IC50 is over 10 µM.

For the next test, the system named is bone marrow derived mast cells (BMMC). The test can be described thus: BMMC high cell density IgE activation: hexosaminidase. In kind it is cell-based, mouse. The conditions noted are these: high cell density; read-out: BMMC anti-IgE Hexos. Here is the method:
After sensitizing, cells are counted, pelleted (1000 rpm, 5-10 minutes), and resuspended at 1-3×10^6 cells/ml in MT buffer. Add 100 ul of cell suspension to each well and 100 ul of compound dilutions. The final vehicle concentration is 0.5% DMSO. Incubate at 37° C. (5% CO2) for 1 hour. After 1 hour of compound treatment, stimulate cells with 6× stimulus (60 ng/ml DNP-BSA). Mix wells with the cells and allow plates to incubate at 37° C. (5% CO2) for one hour. After 1 hour incubation, pellet cells (10 minutes, 1000 RPM) and collect 200 ul per well of the supernatant, being careful not to disturb pellet, and transfer to a clean tube or 96-well plate. Place the supernatant plate on ice. During the 4-5 hour step (see next) perform the hexosiminidase assay. Resuspend cell pellet in 240 ul WEI-conditioned media containing 0.5% DMSO and corresponding concentration of compound. Incubate BMMC cells for 4-5 hours at 37° C. (5% CO2). After incubation, pellet cells (1000 RPM, 10 minutes) and collect 225 ul per well and place in −80° C. until ready to perform ELISAS. ELISAS are performed on appropriately diluted samples (determined empirically for each donor cell population so that the sample measurement falls within the standard curve) following the supplier's instructions.
Add 50 uL of BMMC cell supernatant (see above) to the hexoseaminidase substrate, place at 37° C. for 30 minutes and read the plate at 5, 10, 15, and 30 minutes on a spectrophotometer.
With `CC(=O)N(C)c1ccc(Nc2ncc(F)c(NC3CC3)n2)cc1` [Compound R945369], the IC50 amounted to 1.27 µM.
Consider `Fc1cnc(Nc2ccc(OCc3ccccc3)c(Cl)c2)nc1Nc1ccc(OCc2ccccc2)c(Cl)c1` [Compound R926965], for which the IC50 was over 10 µM.
Same read-out and setting: the figure for `CNCCNC(=O)c1cc(Nc2nc(Nc3cccc(OCC(=O)NC)c3)ncc2F)ccc1OC(F)(F)F` [Compound R950408] is 4.82 µM; for `CNC(=O)COc1cccc(Nc2ncc(F)c(Nc3ccc(OC(F)(F)F)c(C(=O)N4CCCCC4)c3)n2)c1` [Compound R950409] it is 3.24 µM.
The same measure, in the same setting: the figure for `CCOC(=O)CCn1ncc2cc(Nc3ncc(F)c(Nc4ccc(F)c(F)c4)n3)ccc21` [Compound R935384] is over 10 µM.
On to `CNC(=O)COc1cccc(Nc2ncc(F)c(Nc3ccc(OC(F)(F)F)c(C(=O)NC[C@@H](O)CO)c3)n2)c1` [Compound R950410], for which the IC50 is over 10 µM.
On the same count and under the same terms, the result for `CNC(=O)CCn1ncc2cc(Nc3ncc(F)c(Nc4ccc(Cl)cc4)n3)ccc21` [Compound R935382] reads 0.2 µM.

The target of another test is T1, Syk kinase (Homo sapiens, UniProt P43405).
T1 construct: purchased Upstate, Lake Placid NY
The test can be described thus: Syk kinase biochemical fluorescence polarization assay. The conditions noted are these: isolated Syk kinase, fluorescence polarization, 4 uM ATP. On the technique in general: Fluorescence polarisation rises when a labelled molecule tumbles more slowly, as on binding a larger partner.
As for `CC(=O)N(C)c1ccc(Nc2ncc(F)c(NC3CC3)n2)cc1` [Compound R945369], the IC50 stood at 1.85 µM.
Consider `CC1(C)Oc2ccc(Nc3nc(Nc4ccc5cc[nH]c5c4)ncc3F)cc2NC1=O` [Compound R926982], for which the IC50 was found to be 0.028 µM.

A further test deals with Primary human B-cells. Kind of test: Primary B-cell activation (α-IgM, CD69 upregulation). The format is cell-based. The conditions noted are these: read-out: 1° B-Cell CD69 IC50. Here is the method: Primary human B-cells were isolated from buffy coat, the white cell layer that forms between the red cells and the […] when anti-coagulated blood is centrifuged, or from fresh blood using CD19-Dynal® beads and a FACS. Buffy coat was obtained from the Stanford Medical School Blood Centre, prepared on the same day by the blood bank, stored and transported cold (with ice). The buffy coat (approx 35 mL) was placed in a 500 mL conical sterile centrifuge pot and cooled on ice, then diluted with cold PBS containing 0.2% BSA (Sigma: A7638) and sodium citrate (0.1%, Sigma: S-5570) (P—B—C) to a total volume of 200 mL and mixed gently. Fresh blood was collected from donors in 10 mL vacutainers containing heparin (1 vacutainer collects approximately 8.5 mL blood). The blood was cooled on ice, transferred into 50 mL falcon tubes (20 mL/tube) or a 500 mL conical sterile centrifuge pot, and diluted with an equal volume P—B—C.
25 mL diluted blood or buffy coat was layered onto 15 mL cold ficoll and placed back on ice. The ficoll layered blood was centrifuged (Beckman GS-6R) for 45 minutes at 2000 rpm, 4° C. to separate the Peripheral Blood Mononuclear Cells (PBMC) from the Red Blood Cells (RBC) and granulocytes. The top aqueous layer was then aspirated until 1 inch above the PBMC layer. The PBMCs were transferred from every 2 ficoll tubes into one clean 50 mL falcon tube (=approx 10 mL/tube). The transferred PBMCs were diluted 5× with icecold PBS with 0.2% BSA (P—B) and centrifuged for 20 min at 1400 rpm and 4° C. The supernatant (this may be cloudy) was then aspirated and the PBMCs resuspended into 25 mL P—B and the cells counted (using a 1:5 dilution) and kept on ice.
The cells were then positively selected using anti-CD 19 antibody coupled to magnetic beads (Dynal®) as per manufacturer's instructions. The approximate required amount of CD19-Dynal® beads (CD19-coated dyna beads M-450 (pabB), Dynal®) was calculated by estimating the number of B-cells as 5% of PBMCs counted and adding approximately10 beads per cell from the bead stock (4×10^8 beads/mL). The CD19-Dynal® beads were washed 2× in P—B in a 5 mL tube using the Dynal® magnet, then added into the suspended PBMCs. This mixture was then passed through the Dynal® magnet and washed several times to separate the bead-bound cells.
After separation, the beads and antibody were removed using Dynal® CD19-DETACHaBEAD® for 45 min at 30° C. Yield is typically 2×10^7 B-cells per buffy coat. B-cells were washed and resuspended as 1E6 cells/mL in RPMI1640+10% FBS+Penicillin/[…]+1 ng/mL IFNα8. Cells were rested overnight at 37° C. and 5% CO2.
The following day, cells were washed and resuspended in RPMI+2.5% FBS to 1×10^6 cells/mL. Cells were then aliquoted into a V-bottom 96-well plate (Corning) at 65 uL cells per well. By robot, 65 uL of a 2× compound was added to the cells with final concentration of DMSO at 0.2%, and incubated for 1 hr at 37° C. Cells were then stimulated with 20 uL 7.5× α-IgM from Jackson laboratories (final 5 ug/mL) for 24 hrs. At day 3, the cells were spun down and stained for CD69 and analyzed by FACS gated on the live cells (by light scatter).
Varied concentrations of compound were compared to solvent only to determine the inhibition of B-cell activation IC50 of each compound.
Regarding `CC1(C)Oc2ccc(Nc3nc(Nc4ccc5cc[nH]c5c4)ncc3F)cc2NC1=O` [Compound R926982], the IC50 worked out at 0.394 µM.
